# Experimental data published in US20060160871A1, “Stable non-crystalline formulation comprising losartan” (Nektar Therapeutics, priority 2004, published 2006).
# What was measured:
# [1] = Powder flowability after exposure to ambient conditions; format: physicochemical
# Text: The particles made by Example 2 were further determined to be advantageous over pure non-crystalline forms. […] Accordingly, the non-crystalline losartan and PVP-VA containing powder formulation has an improved flowability for downstream process such as tablet formation.
# [2] = Differential Scanning Calorimetry (DSC): amorphous form and glass transition temperature; format: physicochemical; conditions: specific heat as a function of temperature
# Description: DSC was used to determine glass transition temperatures. This technique provides a measure of the glass transition characteristics of amorphous materials. In addition, the absence of a melting point is indicative of the lack of three dimensional order characteristic of crystalline materials. A Perkin-Elmer™ DSC 7 (Perkin-Elmer Ltd, UK) was used. 1-5 mg samples were examined in sealed, crimped aluminium pans, under an atmosphere of nitrogen. Samples were measured using a TA DSC-2920 instrument (TA Instruments, New Castle, Del.). About 5-10 mg sample was packed into an aluminum DSC pan and gently tapped to get the powder to form a uniform layer on the bottom of the pan (Catalog numbers 900 793.901 for pans and 900 794.901 for lids). The DSC pan was hermetically sealed using a sample encapsulation press (part # 900680.902). Helium is used as the DSC purge gas at 30 ml/min. A Refrigerated Control System (RCS) provides the heat sink for the DSC, with helium as the circuit gas run at ˜110 ml/min. In modulated DSC experiments, the sample was first cooled to about 0° C., held isothermally for 10 minutes, and then heated at 2° C./minute to ˜200° C. The heating rate was modulated by superimposing a sinusoidal heating profile at ±0.318° C./min.
structure (smiles),measurement,setting,value
"CCCCc1nc(Cl)c(CO)n1Cc1ccc(-c2ccccc2-c2nnn[nH]2)cc1.[K] [pure non-crystalline losartan, 2-butyl-4-chloro-1-[p-(o-1H-tetrazol-5-ylphenyl)benzyl]imidazole-5-methanol monopotassium salt]",powder flowability,[1],sticks and agglomerates
same,Tg midpoint,[2],about 51 °C
same,Tg onset,[2],about 46 °C
